The text below walks through data of article PMC12475274, “Harnessing indole scaffolds to identify small-molecule IRE1α inhibitors modulating XBP1 mRNA splicing” (Nature Communications, 2025).

The test system of test [1] is IRE1α transcription level in HCT 116 cells. Description: RT-qPCR of IRE1α transcription level, HCT 116. It counts as cell-based, human. Particulars: HCT 116 cells. As to the method:
A549 cells, HCT 116 cells, and HT-29 cells were collected and seeded in 6-well plates at a density of 5 × 10^5 cells per well and cultured overnight to attach, then treated with compound or DMSO for 2 h, then 0.5 μg/mL final concentration of tunicamycin (Tm, MP Biomedi, 0215002805) were added to induce the ER stress for 2 h. After treatment, total RNA was purified using an RNeasy mini kit (Qiagen, 74106). 500 ng of total RNA was used for reverse transcription using the High-Capacity cDNA Reverse Transcription Kits (Thermo Fisher, 4368814). cDNA was diluted 1: 5 using RNase-free water, and 1 μL CDNA was used for each qPCR reaction. The qPCR was performed using PowerUp™ SYBR™ Green Master Mix (Thermo Fisher, A25742) with 10 µL reaction volume using Bio-Rad CFX96 Real-Time PCR Detection System following the standard cycling mode (primer Tm ≥ 60 °C) on the manufacturer’s protocol. Data was analyzed using the 2^- ΔΔCt method. The primers used are listed in Supplementary Table S3. The inhibition % was calculated by using the equation: inhibition% = 100× (normalized Tm control - normalized of the sample)/(normalized Tm control - normalized DMSO control). Tm control: Cells treated with tunicamycin; DMSO control: Cells treated with DMSO only.

The target in another test is CLK2 (Homo sapiens, UniProt P49760). Description: Kinase profiling (SelectScreen), ZLYTE. In kind it is biochemical. As to the method:
(§1) Kinase profiling was conducted by the SelectScreen Kinase Profiling Services (Thermo Fisher), using Z′-LYTE, Adapta, or LanthaScreen Eu Kinase Binding Assay for different kinases. The kinome phylogenetic tree was generated using the KinMap web portal.

For the next test, the target named is EEF2K (Homo sapiens, UniProt O00418). Description: Kinase profiling (SelectScreen), ZLYTE. It counts as biochemical. As to the method: as §1
In a further test the target is EPHA2 (Homo sapiens, UniProt P29317). Description: Kinase profiling (SelectScreen), ZLYTE. It counts as biochemical. As to the method:
as §1

A further test deals with MAPKAPK2 (Homo sapiens, UniProt P49137). Description: Kinase profiling (SelectScreen), ZLYTE. It counts as biochemical. As to the method: as §1
The next test addresses PIM1 (Homo sapiens, UniProt P11309). As to the kind of experiment: Kinase profiling (SelectScreen), ZLYTE. In kind it is biochemical. As to the method:
as §1

A further test deals with PRKACA (PKA) (Homo sapiens, UniProt P17612). As to the kind of experiment: Kinase profiling (SelectScreen), ZLYTE. It counts as biochemical. As to the method: as §1
For another test, the target named is PTK2 (FAK) (Homo sapiens, UniProt Q05397). As to the kind of experiment: Kinase profiling (SelectScreen), ZLYTE. It counts as biochemical. As to the method:
as §1

Another test concerns the target SRC (Homo sapiens, UniProt P12931). Description: Kinase profiling (SelectScreen), ZLYTE. In kind it is biochemical. As to the method: as §1
The target in the next test is ACVR1 (ALK2) (Homo sapiens, UniProt Q04771). As to the kind of experiment: Kinase profiling (SelectScreen), LanthaScreen Binding. To be noted: IA107 at 5 μM. As to the method: as §1
For a further test, the target named is BMPR1B (ALK6) (Homo sapiens, UniProt O00238). The test is described as above. To be noted: IA107 at 5 μM. As to the method:
as §1

Another test concerns the target BMPR2 (Homo sapiens, UniProt Q13873). The test is described as above. Particulars: IA107 at 5 μM. As to the method: as §1
The next test concerns the target BRSK2 (Homo sapiens, UniProt Q8IWQ3). Described as above. To be noted: IA107 at 5 μM. As to the method: as §1
Another test addresses CAMKK2 (CaMKK beta) (Homo sapiens, UniProt Q96RR4). The test is described as above. To be noted: IA107 at 5 μM. As to the method: as §1
Another test deals with CASK (Homo sapiens, UniProt O14936). The description is as above. Particulars: IA107 at 5 μM. As to the method:
as §1

The next test addresses CDC7/DBF4 (Homo sapiens, UniProt O00311). Described as above. Particulars: IA107 at 5 μM. As to the method:
as §1

The target of a further test is CDK8/cyclin C (Homo sapiens, UniProt P49336). The test is described as above. To be noted: IA107 at 5 μM. As to the method: as §1
For a further test, the target named is DDR2 (Homo sapiens, UniProt Q16832). The test is described as above. Particulars: IA107 at 5 μM. As to the method: as §1
For another test, the target named is ICK (Homo sapiens, UniProt Q9UPZ9). Described as above. Particulars: IA107 at 5 μM. As to the method: as §1
In the next test the target is LIMK1 (Homo sapiens, UniProt P53667). Described as above. Particulars: IA107 at 5 μM. As to the method: as §1
The target in a further test is MAP3K11 (MLK3) (Homo sapiens, UniProt Q16584). The description is as above. Particulars: IA107 at 5 μM. As to the method: as §1
The next test addresses MAP3K14 (NIK) (Homo sapiens, UniProt Q99558). The test is described as above. To be noted: IA107 at 5 μM. As to the method: as §1
Another test has as its target MAP4K1 (HPK1) (Homo sapiens, UniProt Q92918). Described as above. Particulars: IA107 at 5 μM. As to the method:
as §1

Another test deals with MAPK15 (ERK7) (Homo sapiens, UniProt Q8TD08). Described as above. Particulars: IA107 at 5 μM. As to the method:
as §1

For a further test, the target named is MYO3B (MYO3 beta) (Homo sapiens, UniProt Q8WXR4). The test is described as above. To be noted: IA107 at 5 μM. As to the method: as §1
A further test has as its target RIPK2 (Homo sapiens, UniProt O43353). The test is described as above. To be noted: IA107 at 5 μM. As to the method: as §1
Another test has as its target STK32B (YANK2) (Homo sapiens, UniProt Q9NY57). The description is as above. Particulars: IA107 at 5 μM. As to the method:
as §1

For the next test, the target named is STK33 (Homo sapiens, UniProt Q9BYT3). The description is as above. To be noted: IA107 at 5 μM. As to the method:
as §1

The next test deals with STK38 (NDR) (Homo sapiens, UniProt Q15208). The test is described as above. To be noted: IA107 at 5 μM. As to the method: as §1
For the next test, the target named is TGFBR1 (ALK5) (Homo sapiens, UniProt P36897). Described as above. Particulars: IA107 at 5 μM. As to the method: as §1
The target in a further test is TLK1 (Homo sapiens, UniProt Q9UKI8). The description is as above. Particulars: IA107 at 5 μM. As to the method: as §1
The target in another test is TNIK (Homo sapiens, UniProt Q9UKE5). The test is described as above. To be noted: IA107 at 5 μM. As to the method:
as §1

The target in another test is TTK (Homo sapiens, UniProt P33981). Described as above. To be noted: IA107 at 5 μM. As to the method:
as §1

Another test deals with ULK2 (Homo sapiens, UniProt Q8IYT8). Described as above. Particulars: IA107 at 5 μM. As to the method: as §1

Entries after “also recorded” stand apart in the source; their conditions may differ.

Chain of PIM1 (P11309 whole entry): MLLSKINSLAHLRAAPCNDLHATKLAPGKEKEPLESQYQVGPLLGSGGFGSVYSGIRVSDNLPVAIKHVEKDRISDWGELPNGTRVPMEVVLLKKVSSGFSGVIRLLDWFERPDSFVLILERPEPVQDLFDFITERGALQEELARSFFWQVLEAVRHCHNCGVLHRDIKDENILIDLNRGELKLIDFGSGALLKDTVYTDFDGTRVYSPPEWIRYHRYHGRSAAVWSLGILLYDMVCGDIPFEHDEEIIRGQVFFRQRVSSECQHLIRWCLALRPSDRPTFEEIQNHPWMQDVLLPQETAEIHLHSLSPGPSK
Chain of MAPK15 (ERK7) (Q8TD08 whole entry): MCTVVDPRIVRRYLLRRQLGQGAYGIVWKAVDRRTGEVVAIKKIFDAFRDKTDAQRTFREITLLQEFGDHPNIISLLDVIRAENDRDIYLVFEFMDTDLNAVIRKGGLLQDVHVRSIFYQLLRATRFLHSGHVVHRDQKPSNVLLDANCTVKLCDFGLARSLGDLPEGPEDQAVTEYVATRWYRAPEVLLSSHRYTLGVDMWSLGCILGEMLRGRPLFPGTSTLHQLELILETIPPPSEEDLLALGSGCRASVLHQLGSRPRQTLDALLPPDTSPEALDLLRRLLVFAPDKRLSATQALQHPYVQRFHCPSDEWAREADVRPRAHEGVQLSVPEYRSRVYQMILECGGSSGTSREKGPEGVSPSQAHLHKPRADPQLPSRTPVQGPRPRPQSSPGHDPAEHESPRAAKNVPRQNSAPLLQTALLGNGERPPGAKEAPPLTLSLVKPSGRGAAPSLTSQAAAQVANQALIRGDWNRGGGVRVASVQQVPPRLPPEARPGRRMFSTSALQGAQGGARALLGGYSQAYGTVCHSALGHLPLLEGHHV
Chain of TLK1 (Q9UKI8 whole entry): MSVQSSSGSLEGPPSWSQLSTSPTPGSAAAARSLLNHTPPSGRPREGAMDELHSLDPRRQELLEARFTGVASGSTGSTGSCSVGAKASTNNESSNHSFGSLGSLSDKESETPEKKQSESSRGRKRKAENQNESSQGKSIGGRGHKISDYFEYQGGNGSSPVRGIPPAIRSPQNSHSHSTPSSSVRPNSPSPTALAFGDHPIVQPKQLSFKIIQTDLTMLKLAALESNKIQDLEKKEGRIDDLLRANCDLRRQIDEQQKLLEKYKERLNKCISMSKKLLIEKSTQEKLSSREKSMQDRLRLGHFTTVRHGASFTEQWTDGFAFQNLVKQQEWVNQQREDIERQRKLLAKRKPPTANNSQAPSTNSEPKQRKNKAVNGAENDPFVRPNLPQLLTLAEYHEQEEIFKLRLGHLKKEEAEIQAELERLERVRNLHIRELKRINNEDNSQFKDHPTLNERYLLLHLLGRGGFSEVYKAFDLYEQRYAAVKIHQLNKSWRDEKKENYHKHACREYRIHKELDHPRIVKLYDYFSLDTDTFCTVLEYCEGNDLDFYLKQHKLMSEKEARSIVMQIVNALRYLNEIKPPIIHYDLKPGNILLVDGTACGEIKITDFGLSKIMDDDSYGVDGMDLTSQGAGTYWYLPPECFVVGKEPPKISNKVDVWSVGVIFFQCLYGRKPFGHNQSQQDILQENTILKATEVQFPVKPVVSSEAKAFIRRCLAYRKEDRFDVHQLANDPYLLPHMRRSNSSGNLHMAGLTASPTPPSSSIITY
Chain of DDR2 (Q16832 22-855): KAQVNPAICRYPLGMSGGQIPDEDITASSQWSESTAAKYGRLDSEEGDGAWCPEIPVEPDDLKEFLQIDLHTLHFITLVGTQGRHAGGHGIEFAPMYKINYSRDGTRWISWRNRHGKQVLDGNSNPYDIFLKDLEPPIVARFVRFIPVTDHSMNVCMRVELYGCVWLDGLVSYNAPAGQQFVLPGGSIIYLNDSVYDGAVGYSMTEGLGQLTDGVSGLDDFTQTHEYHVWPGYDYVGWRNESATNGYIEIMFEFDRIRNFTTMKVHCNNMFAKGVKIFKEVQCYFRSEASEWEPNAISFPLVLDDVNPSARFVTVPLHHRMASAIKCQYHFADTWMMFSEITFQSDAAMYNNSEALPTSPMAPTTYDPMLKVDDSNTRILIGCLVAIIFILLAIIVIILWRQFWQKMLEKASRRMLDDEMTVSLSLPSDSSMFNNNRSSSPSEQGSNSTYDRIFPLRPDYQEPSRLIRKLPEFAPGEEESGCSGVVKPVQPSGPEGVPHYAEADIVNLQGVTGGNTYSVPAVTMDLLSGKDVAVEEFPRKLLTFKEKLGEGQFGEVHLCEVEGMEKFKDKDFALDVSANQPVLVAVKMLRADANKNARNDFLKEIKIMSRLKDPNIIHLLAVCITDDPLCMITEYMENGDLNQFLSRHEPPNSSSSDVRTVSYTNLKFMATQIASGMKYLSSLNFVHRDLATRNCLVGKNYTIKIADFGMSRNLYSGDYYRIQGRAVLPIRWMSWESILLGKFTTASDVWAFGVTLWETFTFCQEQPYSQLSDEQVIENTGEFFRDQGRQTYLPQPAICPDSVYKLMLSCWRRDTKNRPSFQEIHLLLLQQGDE
Chain of TNIK (Q9UKE5 whole entry): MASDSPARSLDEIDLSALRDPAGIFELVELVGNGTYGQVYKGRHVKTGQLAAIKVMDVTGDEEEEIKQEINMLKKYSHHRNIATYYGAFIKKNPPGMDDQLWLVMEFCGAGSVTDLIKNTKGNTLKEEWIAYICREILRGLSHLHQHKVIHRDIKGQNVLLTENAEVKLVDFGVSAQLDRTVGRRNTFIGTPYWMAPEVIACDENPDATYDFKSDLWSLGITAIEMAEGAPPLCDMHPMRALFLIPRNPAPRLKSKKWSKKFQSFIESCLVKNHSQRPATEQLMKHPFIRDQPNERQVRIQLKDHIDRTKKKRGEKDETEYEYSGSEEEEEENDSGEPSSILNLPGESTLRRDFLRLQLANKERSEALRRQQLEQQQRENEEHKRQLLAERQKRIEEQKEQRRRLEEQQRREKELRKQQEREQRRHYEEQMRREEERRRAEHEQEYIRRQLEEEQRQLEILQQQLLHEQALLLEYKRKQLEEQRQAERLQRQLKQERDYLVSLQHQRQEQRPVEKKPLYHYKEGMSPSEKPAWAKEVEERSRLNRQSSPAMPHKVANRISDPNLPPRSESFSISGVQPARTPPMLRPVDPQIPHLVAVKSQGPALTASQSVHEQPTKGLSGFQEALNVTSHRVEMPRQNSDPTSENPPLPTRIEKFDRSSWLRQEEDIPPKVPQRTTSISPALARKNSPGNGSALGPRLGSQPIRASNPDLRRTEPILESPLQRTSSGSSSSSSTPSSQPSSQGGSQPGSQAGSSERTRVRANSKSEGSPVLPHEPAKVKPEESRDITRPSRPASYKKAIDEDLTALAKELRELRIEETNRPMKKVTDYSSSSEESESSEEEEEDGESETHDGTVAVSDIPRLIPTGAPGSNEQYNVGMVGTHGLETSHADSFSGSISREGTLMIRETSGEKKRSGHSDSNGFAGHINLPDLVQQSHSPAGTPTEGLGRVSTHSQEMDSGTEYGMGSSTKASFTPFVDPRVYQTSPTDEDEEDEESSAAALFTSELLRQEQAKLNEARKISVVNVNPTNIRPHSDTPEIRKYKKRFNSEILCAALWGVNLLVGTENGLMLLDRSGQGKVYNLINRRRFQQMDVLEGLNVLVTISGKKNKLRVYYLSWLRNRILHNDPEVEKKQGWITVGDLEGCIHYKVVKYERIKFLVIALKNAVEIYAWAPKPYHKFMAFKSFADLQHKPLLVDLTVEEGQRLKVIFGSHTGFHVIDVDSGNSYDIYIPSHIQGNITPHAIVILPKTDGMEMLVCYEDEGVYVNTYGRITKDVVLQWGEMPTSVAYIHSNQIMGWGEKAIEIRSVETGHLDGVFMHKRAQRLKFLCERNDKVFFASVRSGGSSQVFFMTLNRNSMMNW
Chain of LIMK1 (P53667 whole entry): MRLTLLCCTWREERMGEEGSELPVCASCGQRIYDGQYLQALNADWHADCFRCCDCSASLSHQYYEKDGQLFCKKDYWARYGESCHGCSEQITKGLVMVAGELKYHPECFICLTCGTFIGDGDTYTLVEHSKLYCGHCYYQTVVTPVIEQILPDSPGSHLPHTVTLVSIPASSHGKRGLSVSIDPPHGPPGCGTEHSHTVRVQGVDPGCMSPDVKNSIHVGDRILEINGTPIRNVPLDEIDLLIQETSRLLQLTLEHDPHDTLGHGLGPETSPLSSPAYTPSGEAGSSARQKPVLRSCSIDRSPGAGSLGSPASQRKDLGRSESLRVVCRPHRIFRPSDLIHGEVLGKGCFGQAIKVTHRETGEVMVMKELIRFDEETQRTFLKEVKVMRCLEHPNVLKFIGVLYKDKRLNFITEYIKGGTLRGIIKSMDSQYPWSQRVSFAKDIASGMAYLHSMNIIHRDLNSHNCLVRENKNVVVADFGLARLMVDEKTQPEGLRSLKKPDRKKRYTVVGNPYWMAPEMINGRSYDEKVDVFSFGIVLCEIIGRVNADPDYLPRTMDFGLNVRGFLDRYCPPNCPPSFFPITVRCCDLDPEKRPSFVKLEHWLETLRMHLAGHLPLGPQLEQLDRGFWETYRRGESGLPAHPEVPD
Chain of MAPKAPK2 (P49137 whole entry): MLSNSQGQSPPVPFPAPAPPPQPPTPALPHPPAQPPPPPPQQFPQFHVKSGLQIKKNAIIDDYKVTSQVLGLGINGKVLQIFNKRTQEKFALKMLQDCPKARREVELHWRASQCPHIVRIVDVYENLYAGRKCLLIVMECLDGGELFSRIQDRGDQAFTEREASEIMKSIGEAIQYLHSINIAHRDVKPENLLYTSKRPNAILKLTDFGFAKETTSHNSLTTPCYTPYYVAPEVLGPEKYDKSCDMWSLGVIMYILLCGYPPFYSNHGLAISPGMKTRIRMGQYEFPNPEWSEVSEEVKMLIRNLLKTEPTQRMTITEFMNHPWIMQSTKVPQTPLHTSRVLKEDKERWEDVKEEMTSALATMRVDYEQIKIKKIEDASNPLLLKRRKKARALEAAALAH

As to `CCOC(=O)CCc1c(C)n(C(=O)c2ccccc2)c2ccc(Br)cc12` [IAPD1], in test [1], the “effect on IRE1α transcription level” value was “did not influence; also recorded: no obvious impact”.
Regarding `Cc1c(CCC(=O)O)c2cc(Br)ccc2n1C(=O)c1ccccc1` [IA107], the inhibition at 5 µM against CLK2 stood at 7%; against EEF2K, 5%; against EPHA2, 4%; against MAPKAPK2 it was 5%; at PIM1 it was 39%; on PRKACA (PKA) it was 9%. The inhibition at 5 µM was 4% on PTK2 (FAK); 4% on SRC; 2% at ACVR1 (ALK2); 12% at BMPR1B (ALK6); -4% at BMPR2; 1% on BRSK2. The inhibition at 5 µM at CAMKK2 (CaMKK beta) is 4%; at CASK it was -14%; at CDC7/DBF4 it was 8%; at CDK8/cyclin C, 35%; at DDR2, -1%; at ICK, -2%. In addition, the inhibition at 5 µM is -16% at LIMK1; -3% at MAP3K11 (MLK3); 0% on MAP3K14 (NIK); -2% at MAP4K1 (HPK1); 17% at MAPK15 (ERK7); -2% on MYO3B (MYO3 beta). In addition, the inhibition at 5 µM at RIPK2 was 0%; on STK32B (YANK2), 2%; on STK33, -4%; on STK38 (NDR) it was 6%; on TGFBR1 (ALK5), 54%; on TLK1 it was -12%. The figures for the inhibition at 5 µM at TNIK, on TTK and at ULK2 were 8%, 6% and -3%, respectively.
